# Measured values as given in PubChem BioAssay (NCI).
#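 All cell lines were grown in 96-well plates and treated with compound for 48 hours. Abbreviation: GI50, concentration required for 50% inhibition of growth. TGI: concentration producing complete growth inhibition.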
# Key:
# Experiment in all cases: inhibition of tumour cell growth, NCI panel, 48 h
# [1] = test system: HOP-62 NSCLC
# [2] = test system: MOLT-4 leukemia
# [3] = test system: OVCAR-5 ovarian
# [4] = test system: EKVX NSCLC
# [5] = test system: UACC-62 melanoma
# [6] = test system: MDA-MB-231 breast
# [7] = test system: T-47D breast
# [8] = test system: UO-31 renal
# [9] = test system: MCF7 breast
# [10] = test system: M14 melanoma
# [11] = test system: 786-0 renal
# [12] = test system: A549 NSCLC
# [13] = test system: SK-MEL-2 melanoma
# [14] = test system: U251 CNS
# [15] = test system: SF-268 CNS
# [16] = test system: HCT-116 colon
# [17] = test system: BT-549 breast
# [18] = test system: HCC-2998 colon
# [19] = test system: SK-OV-3 ovarian
# [20] = test system: SW-620 colon
# [21] = test system: RPMI-8226 leukemia
# [22] = test system: SR leukemia
# [23] = test system: SNB-75 CNS
# [24] = test system: HS 578T breast
# [25] = test system: HOP-92 NSCLC
# [26] = test system: SK-MEL-28 melanoma
# [27] = test system: HCT-15 colon
smiles,measurement,setting,value
Clc1nc(Cl)c2ncn(CC#CCn3cnc4c(Cl)nc(Cl)nc43)c2n1,GI50,[1],1.9 µM
same,TGI,[1],3.89 µM
same,GI50,[2],0.554 µM
same,TGI,[2],2.48 µM
same,GI50,[3],10.5 µM
same,TGI,[3],25.6 µM
same,GI50,[4],2.6 µM
same,TGI,[4],6.2 µM
same,GI50,[5],1.96 µM
same,TGI,[5],3.66 µM
same,GI50,[6],2.42 µM
same,TGI,[6],4.93 µM
same,GI50,[7],1.85 µM
same,TGI,[7],4.13 µM
same,GI50,[8],1.67 µM
same,TGI,[8],3.31 µM
same,GI50,[9],2.18 µM
same,TGI,[9],5.96 µM
same,GI50,[10],2.6 µM
same,TGI,[10],5.62 µM
same,GI50,[11],3.46 µM
same,TGI,[11],11.4 µM
same,GI50,[12],2.49 µM
same,TGI,[12],9.32 µM
same,GI50,[13],2.53 µM
same,TGI,[13],5.55 µM
same,GI50,[14],2.28 µM
same,TGI,[14],4.75 µM
same,GI50,[15],1.89 µM
same,TGI,[15],3.76 µM
same,GI50,[16],1.78 µM
same,TGI,[16],3.42 µM
same,GI50,[17],3.3 µM
same,TGI,[17],11.3 µM
same,GI50,[18],2.08 µM
same,TGI,[18],4.05 µM
same,GI50,[19],10.5 µM
same,TGI,[19],22.5 µM
same,GI50,[20],1.84 µM
same,TGI,[20],3.46 µM
same,GI50,[21],2.09 µM
same,TGI,[21],5.07 µM
same,GI50,[22],0.38 µM
same,TGI,[22],2.19 µM
same,GI50,[23],2.87 µM
same,TGI,[23],7.76 µM
same,GI50,[24],2.49 µM
same,TGI,[24],6.79 µM
same,GI50,[25],2.21 µM
same,TGI,[25],4.02 µM
same,GI50,[26],1.82 µM
same,TGI,[26],3.39 µM
same,GI50,[27],1.99 µM
same,TGI,[27],4.06 µM
